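Step 1: Grow cells in 96-well plates. Step 2: Expose to compound for 48 hours at 5 concentrations. Step 3: Interpolate endpoints linearly; if unreached, use highest concentration. Definition used: TGI = concentration required for complete inhibition of growth.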
tested on: SK-MEL-2 melanoma; test: NCI-60 cell line screen, 48 h

SMILES | TGI
C(=N\c1nc2cc3sc(/N=C/c4cccs4)nc3cc2s1)/c1cccs1 | > 100 µM

tested on: SN12C renal; test: NCI-60 cell line screen, 48 h

SMILES | TGI
NC(=S)N/N=C/c1c[nH]c2ccccc12 | > 100 µM
O=C1CSC(c2ccccc2O)N1c1ccc(-c2ccc(-n3c(-c4ccccc4)nc4ccccc4c3=O)cc2)cc1 (centres undefined) | > 100 µM
COc1ccc2c3c1O[C@H]1[C@@H](O)CC[C@@]4(O)[C@@H](C2)N(C)CC[C@]314 | > 100 µM
C(=N\c1nc2cc3sc(/N=C/c4cccs4)nc3cc2s1)/c1cccs1 | > 100 µM

tested on: HOP-62 NSCLC; test: NCI-60 cell line screen, 48 h

SMILES | TGI
NC(=S)N/N=C/c1c[nH]c2ccccc12 | > 100 µM
COc1ccc(/C=C/c2nsc(/C=C/c3ccc(OC)cc3)n2)cc1 | > 100 µM
O=C1CSC(c2ccccc2O)N1c1ccc(-c2ccc(-n3c(-c4ccccc4)nc4ccccc4c3=O)cc2)cc1 (centres undefined) | > 100 µM
COc1ccc2c3c1O[C@H]1[C@@H](O)CC[C@@]4(O)[C@@H](C2)N(C)CC[C@]314 | > 100 µM
C(=N\c1nc2cc3sc(/N=C/c4cccs4)nc3cc2s1)/c1cccs1 | > 100 µM

tested on: SNB-75 CNS; test: NCI-60 cell line screen, 48 h

SMILES | TGI
NC(=S)N/N=C/c1c[nH]c2ccccc12 | > 100 µM
COc1ccc(/C=C/c2nsc(/C=C/c3ccc(OC)cc3)n2)cc1 | > 100 µM
O=C1CSC(c2ccccc2O)N1c1ccc(-c2ccc(-n3c(-c4ccccc4)nc4ccccc4c3=O)cc2)cc1 (centres undefined) | > 100 µM
C(=N\c1nc2cc3sc(/N=C/c4cccs4)nc3cc2s1)/c1cccs1 | > 100 µM

tested on: K-562 leukemia; test: NCI-60 cell line screen, 48 h

SMILES | TGI
NC(=S)N/N=C/c1c[nH]c2ccccc12 | > 100 µM
COc1ccc(/C=C/c2nsc(/C=C/c3ccc(OC)cc3)n2)cc1 | > 100 µM
O=C1CSC(c2ccccc2O)N1c1ccc(-c2ccc(-n3c(-c4ccccc4)nc4ccccc4c3=O)cc2)cc1 (centres undefined) | > 100 µM
COc1ccc2c3c1O[C@H]1[C@@H](O)CC[C@@]4(O)[C@@H](C2)N(C)CC[C@]314 | > 100 µM
C(=N\c1nc2cc3sc(/N=C/c4cccs4)nc3cc2s1)/c1cccs1 | > 100 µM

tested on: SK-MEL-5 melanoma; test: NCI-60 cell line screen, 48 h

SMILES | TGI
NC(=S)N/N=C/c1c[nH]c2ccccc12 | > 100 µM
COc1ccc(/C=C/c2nsc(/C=C/c3ccc(OC)cc3)n2)cc1 | > 100 µM
COc1ccc2c3c1O[C@H]1[C@@H](O)CC[C@@]4(O)[C@@H](C2)N(C)CC[C@]314 | > 100 µM
C(=N\c1nc2cc3sc(/N=C/c4cccs4)nc3cc2s1)/c1cccs1 | > 100 µM

tested on: SK-MEL-28 melanoma; test: NCI-60 cell line screen, 48 h

SMILES | TGI
NC(=S)N/N=C/c1c[nH]c2ccccc12 | > 100 µM
COc1ccc(/C=C/c2nsc(/C=C/c3ccc(OC)cc3)n2)cc1 | > 100 µM
O=C1CSC(c2ccccc2O)N1c1ccc(-c2ccc(-n3c(-c4ccccc4)nc4ccccc4c3=O)cc2)cc1 (centres undefined) | > 100 µM
COc1ccc2c3c1O[C@H]1[C@@H](O)CC[C@@]4(O)[C@@H](C2)N(C)CC[C@]314 | > 100 µM
C(=N\c1nc2cc3sc(/N=C/c4cccs4)nc3cc2s1)/c1cccs1 | > 100 µM

tested on: NCI-H522 lung; test: NCI-60 cell line screen, 48 h

SMILES | TGI
NC(=S)N/N=C/c1c[nH]c2ccccc12 | > 100 µM
COc1ccc(/C=C/c2nsc(/C=C/c3ccc(OC)cc3)n2)cc1 | > 100 µM
O=C1CSC(c2ccccc2O)N1c1ccc(-c2ccc(-n3c(-c4ccccc4)nc4ccccc4c3=O)cc2)cc1 (centres undefined) | 44.7 µM
COc1ccc2c3c1O[C@H]1[C@@H](O)CC[C@@]4(O)[C@@H](C2)N(C)CC[C@]314 | > 100 µM
C(=N\c1nc2cc3sc(/N=C/c4cccs4)nc3cc2s1)/c1cccs1 | > 100 µM

tested on: SF-268 CNS; test: NCI-60 cell line screen, 48 h

SMILES | TGI
NC(=S)N/N=C/c1c[nH]c2ccccc12 | > 100 µM
COc1ccc(/C=C/c2nsc(/C=C/c3ccc(OC)cc3)n2)cc1 | > 100 µM
O=C1CSC(c2ccccc2O)N1c1ccc(-c2ccc(-n3c(-c4ccccc4)nc4ccccc4c3=O)cc2)cc1 (centres undefined) | > 100 µM
COc1ccc2c3c1O[C@H]1[C@@H](O)CC[C@@]4(O)[C@@H](C2)N(C)CC[C@]314 | > 100 µM
C(=N\c1nc2cc3sc(/N=C/c4cccs4)nc3cc2s1)/c1cccs1 | > 100 µM

tested on: A498 renal; test: NCI-60 cell line screen, 48 h

SMILES | TGI
NC(=S)N/N=C/c1c[nH]c2ccccc12 | > 100 µM
COc1ccc(/C=C/c2nsc(/C=C/c3ccc(OC)cc3)n2)cc1 | > 100 µM
O=C1CSC(c2ccccc2O)N1c1ccc(-c2ccc(-n3c(-c4ccccc4)nc4ccccc4c3=O)cc2)cc1 (centres undefined) | > 100 µM
COc1ccc2c3c1O[C@H]1[C@@H](O)CC[C@@]4(O)[C@@H](C2)N(C)CC[C@]314 | > 100 µM
C(=N\c1nc2cc3sc(/N=C/c4cccs4)nc3cc2s1)/c1cccs1 | > 100 µM

tested on: HOP-92 NSCLC; test: NCI-60 cell line screen, 48 h

SMILES | TGI
NC(=S)N/N=C/c1c[nH]c2ccccc12 | > 100 µM
COc1ccc(/C=C/c2nsc(/C=C/c3ccc(OC)cc3)n2)cc1 | > 100 µM
O=C1CSC(c2ccccc2O)N1c1ccc(-c2ccc(-n3c(-c4ccccc4)nc4ccccc4c3=O)cc2)cc1 (centres undefined) | > 100 µM
COc1ccc2c3c1O[C@H]1[C@@H](O)CC[C@@]4(O)[C@@H](C2)N(C)CC[C@]314 | > 100 µM
C(=N\c1nc2cc3sc(/N=C/c4cccs4)nc3cc2s1)/c1cccs1 | > 100 µM

tested on: 786-0 renal; test: NCI-60 cell line screen, 48 h

SMILES | TGI
NC(=S)N/N=C/c1c[nH]c2ccccc12 | > 100 µM
COc1ccc(/C=C/c2nsc(/C=C/c3ccc(OC)cc3)n2)cc1 | 41.8 µM
O=C1CSC(c2ccccc2O)N1c1ccc(-c2ccc(-n3c(-c4ccccc4)nc4ccccc4c3=O)cc2)cc1 (centres undefined) | 60.9 µM
COc1ccc2c3c1O[C@H]1[C@@H](O)CC[C@@]4(O)[C@@H](C2)N(C)CC[C@]314 | > 100 µM
C(=N\c1nc2cc3sc(/N=C/c4cccs4)nc3cc2s1)/c1cccs1 | > 100 µM

tested on: NCI-H226 lung; test: NCI-60 cell line screen, 48 h

SMILES | TGI
NC(=S)N/N=C/c1c[nH]c2ccccc12 | > 100 µM
COc1ccc(/C=C/c2nsc(/C=C/c3ccc(OC)cc3)n2)cc1 | > 100 µM
O=C1CSC(c2ccccc2O)N1c1ccc(-c2ccc(-n3c(-c4ccccc4)nc4ccccc4c3=O)cc2)cc1 (centres undefined) | > 100 µM
COc1ccc2c3c1O[C@H]1[C@@H](O)CC[C@@]4(O)[C@@H](C2)N(C)CC[C@]314 | > 100 µM
C(=N\c1nc2cc3sc(/N=C/c4cccs4)nc3cc2s1)/c1cccs1 | 88.1 µM

tested on: UACC-257 melanoma; test: NCI-60 cell line screen, 48 h

SMILES | TGI
NC(=S)N/N=C/c1c[nH]c2ccccc12 | > 100 µM
COc1ccc(/C=C/c2nsc(/C=C/c3ccc(OC)cc3)n2)cc1 | > 100 µM
O=C1CSC(c2ccccc2O)N1c1ccc(-c2ccc(-n3c(-c4ccccc4)nc4ccccc4c3=O)cc2)cc1 (centres undefined) | > 100 µM
COc1ccc2c3c1O[C@H]1[C@@H](O)CC[C@@]4(O)[C@@H](C2)N(C)CC[C@]314 | > 100 µM
C(=N\c1nc2cc3sc(/N=C/c4cccs4)nc3cc2s1)/c1cccs1 | > 100 µM

tested on: M14 melanoma; test: NCI-60 cell line screen, 48 h

SMILES | TGI
NC(=S)N/N=C/c1c[nH]c2ccccc12 | > 100 µM
COc1ccc(/C=C/c2nsc(/C=C/c3ccc(OC)cc3)n2)cc1 | > 100 µM
O=C1CSC(c2ccccc2O)N1c1ccc(-c2ccc(-n3c(-c4ccccc4)nc4ccccc4c3=O)cc2)cc1 (centres undefined) | > 100 µM
COc1ccc2c3c1O[C@H]1[C@@H](O)CC[C@@]4(O)[C@@H](C2)N(C)CC[C@]314 | > 100 µM
C(=N\c1nc2cc3sc(/N=C/c4cccs4)nc3cc2s1)/c1cccs1 | > 100 µM

tested on: SF-295 CNS; test: NCI-60 cell line screen, 48 h

SMILES | TGI
NC(=S)N/N=C/c1c[nH]c2ccccc12 | > 100 µM
